# Experimental data: patent publication US20240093034A1, “FLUORESCENT DYES” (EXOPHARM LIMITED, priority 2020, published 2024)
# System: PBMCs
# Test: Uptake of dye 2-labelled MSC-EVs by immune cells of the mdMLR assay
# Assay type: cell-based, human
# Conditions: 5 days with dye 2-labelled MSC-EVs
# Description: The MSC-EV preparations were stained with dye 2 of the invention according to the following protocol. Dye 2 was provided as a lyophilised powder. 1 mg of dye 2 was resuspended with 1 mL buffer to a final concentration of […]. Like CFDA-SE, the dye 2 solution was centrifuged for 10 min at 17,000 x g to reduce background noise to a minimum. Briefly, for the EV-labelling 25 μL of the MSC-EV preparations were incubated with 25 μL of a prepared, centrifuged dye 2 solution (0.2 μM) for 1 hour at 37° C. The sample was diluted 1:20 to a final volume of 1 mL prior to analysis. For EV uptake experiments dye 2-labelled MSC-EV preparations were cleared from EV unbound dye 2 by ultrafiltration. Briefly, after labelling with dye 2, the MSC-EVs were washed by via centrifugation at 12,000xg through Vivaspin 500 filters (Sartorius) for 10 min. The retentate was collected as labelled EV sample.
# The immunomodulatory potential of dye 2-labelled and non-labelled MSC-EV preparations were compared in a multi-donor mixed lymphocyte reaction assay (MLR) as described previously (Madel et al., 2020, Independent human mesenchymal stromal cell-derived extracellular vesicle preparations differentially affect symptoms in an advanced murine Graft-versus-Host-Disease model. bioRxiv, 2020.2012.2021.423658). Briefly, Ficoll prepared peripheral blood mononuclear cells (PBMC) of 12 healthy donors were mixed in equal proportions, aliquoted and stored in the vapour phase of liquid nitrogen until usage. After thawing 600,000 cells were seeded per well of a 96-well U-bottom shape plates (Corning, Kaiserslautern, Germany) and cultured in 10% human AB serum (produced in house) and 100 U/mL penicillin and 100 µg/mL streptomycin (Thermo Fisher Scientific) supplemented RPMI 1640 medium (Thermo Fisher Scientific) in a final volume of 200 μL per well, either in the presence or absence of MSC-EV preparations to be tested. After 5 days, cells were harvested, stained with a collection of different fluorescent labelled antibodies (CD4-BV785; BioLegend, San Diego, CA, USA; CD25-PE-Cy5.5; BD Bioscience; and CD54-AF700; EXBIO) and analysed on a Cytoflex flow cytometer (Software CytExpert 2.3, Beckman-Coulter). Activated and non-activated CD4^+ T cells were discriminated by means of their CD25 and CD54 expression, respectively. Typically, 5 μL of MSC-EV preparations to be tested were applied into respective wells. The following antibodies were used to further discriminate subpopulations: CD8-BV650 (BioLegend), CD14-PO (EXBIO), CD19-ECD (Beckman Coulter) and CD56-APC (BioLegend). The evaluation of the data was carried out with the Kaluza software (Version 2.1, Beckman Coulter).
# To investigate whether EV labelling with dye 2 of the invention allows the identification of EV-uptaking cells, the labelled EV uptake of the different immune cells within the mdMLR assay was examined. To this end, a pool of PBMCs derived from 12 healthy donors were cultured for 5 days in the presence of dye 2-labelled MSC-EVs (n=3) that had been cleared from excess dye 2 by ultrafiltration. Thereafter, cells were harvested, antibody labelled and analysed by flow cytometry. The content of dye 2-labelled cells within different PBMC subtypes was determined. […] In contrast, only proportions of the different lymphocytes appeared as dye 2 positive cells, i.e. 71% of all CD4^+ T cells (CD4^+ cells), 34% of all CD8^+ T cells (CD8^+ cells), 72% of all B cells (CD19^+ cells) and 15% of all NK cells (CD56^+ cells). […]
compound,measurement,value
"CCCCCCCCCCCCCCCCCCN(C)C(=O)c1ccccc1-c1c2ccc(=[N+](CC)CC)cc-2oc2cc(N(CC)CC)ccc12.[Cl-] [Dye 2, Rhodamine B N-methyloctadecylamide]",dye 2 positive B cells (CD19+ cells),72%
same,dye 2 positive CD4+ T cells,71%
same,dye 2 positive CD8+ T cells,34%
same,dye 2 positive NK cells (CD56+ cells),15%
same,dye 2 positive monocytes (CD14+ cells),99%
